Assay results reported in patent publication US6734204B1, “Serotonin potentiation by oleamide analogs” (The Scripps Research Institute, priority 1998, dated 2004).
“Also recorded” adds a separate entry of the source. Where two headings read alike, the source gives them in different places.

Assays:
[1] = biological target: T1, rat 5-HT2A receptor (Rattus norvegicus, UniProt P14842); assay: R-SAT assay, NIH 3T3 cells expressing the rat 5-HT2A receptor, β-galactosidase readout; format: cell-based; conditions: agent 500 nM, 100 nM 5-HT, compared with oleamide
T1 construct: host or cells: NIH 3T3 cells, cotransfected with the beta-galactosidase gene
Protocol: (§1) Activation of the 5-HT2A or 5-HT1A receptors in 5-HT dependent cell lines results in cell prolification measured by the levels of -galactosidase produced.
(§2) An extensive series of agents was tested at 500 nM for their ability to potentiate the rat 5-HT2A or human 5-HT1A receptor response to 100 nM 5-HT. […] The analog screening was conducted with the rat 5-HT2A assay and a subset of analogs was also examined in the human 5-HT1A assay. The results reported are normalized to a 100% potentiation by oleamide for the ease of direct comparisons.
(§3) Methods. The assays were conducted with R-SAT kits (Receptor Technologies Inc, Winooski, Vt.) containing NIH 3T3 cells expressing the rat 5-HT2A receptor (Suter et al. (1987) Fundam. Appl. Toxicol. 9, 785-794; Pritchett et al. (1988) EMBO J 7, 4135-4140) or RAT-1 cells expressing the human 5-HT1A receptor (Lam et al. (1996) Biochem. Biophys. Res. Commun. 219, 853-858; Kobilka et al. (1987) Nature 329, 75-79) cotransfected with the -galactosidase gene and were performed according to the procedures provided (Messier et al. (1995) Pharmacol. Toxicol. 76, 308-311; Brann et al. (1996) J. Biomol. Screening 1, 43-45). The cells in Dulbecco modified Eagle's medium containing serotonin (100 nM) and the analogs (500 nM) were incubated in a humidified 5% CO2 incubator at 37° C. for 4 or 5 days for the 5-HT2A and 5-HT1A transfected cells, respectively. Levels of -galactosidase were measured after incubation with the chromogenic substrate o-nitrophenyl- -D-galactopyranoside (20) at 30° C. in a humidified incubator for a recommended period of time and the absorbance was measured at 405 nm. The results were normalized to 100% for oleamide (rel. % potentiation) for the ease of comparison and are the average of 2-8 determinations.

[2] = biological target: T2, human 5-HT1A receptor (Homo sapiens, UniProt P08908); assay: R-SAT assay, RAT-1 cells expressing the human 5-HT1A receptor, β-galactosidase readout; format: cell-based; conditions: agent 500 nM, 100 nM 5-HT, compared with oleamide
T2 construct: host or cells: RAT-1 cells, cotransfected with the beta-galactosidase gene
T2 sequence (P08908 1-422): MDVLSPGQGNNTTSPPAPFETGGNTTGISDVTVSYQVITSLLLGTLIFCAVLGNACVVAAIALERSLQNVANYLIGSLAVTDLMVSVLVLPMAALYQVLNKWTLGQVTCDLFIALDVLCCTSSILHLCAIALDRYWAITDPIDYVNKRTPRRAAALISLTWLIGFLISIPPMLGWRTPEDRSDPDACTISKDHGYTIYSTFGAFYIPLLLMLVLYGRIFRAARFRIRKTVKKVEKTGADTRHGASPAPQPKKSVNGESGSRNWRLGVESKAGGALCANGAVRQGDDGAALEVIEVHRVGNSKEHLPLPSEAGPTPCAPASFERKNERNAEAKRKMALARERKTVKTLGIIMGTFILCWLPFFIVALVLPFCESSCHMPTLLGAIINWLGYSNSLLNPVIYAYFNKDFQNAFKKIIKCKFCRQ
Protocol: as §1, §2, §3

[3] = biological target: T1, rat 5-HT2A receptor; assay: R-SAT assay, NIH 3T3 cells expressing the rat 5-HT2A receptor, β-galactosidase readout; format: cell-based; conditions: for potentiation response: 100 nM oleamide
[4] = biological target: T3, 5-HT7 receptor (Homo sapiens, UniProt P34969); conditions: cited from earlier work
T3 construct: host or cells: HeLa cells, transfected

[5] = biological target: T4, 5-HT2A receptors (Rattus norvegicus, UniProt P14842); conditions: 100 nM serotonin, 100 nM oleamide; Thomas et al. 1997; cited from earlier work
T4 construct: rat pituitary P11 cells expressing the 5-HT2 receptor; endogenous in cells; host or cells: rat pituitary P11 cells

[6] = biological target: T5, 5-HT3 ion-gated channel receptor (Homo sapiens, UniProt P46098); conditions: 100 nM serotonin, 100 nM oleamide; cited from earlier work
T5 construct: host or cells: frog oocytes, transfected
T5 sequence (P46098 24-478): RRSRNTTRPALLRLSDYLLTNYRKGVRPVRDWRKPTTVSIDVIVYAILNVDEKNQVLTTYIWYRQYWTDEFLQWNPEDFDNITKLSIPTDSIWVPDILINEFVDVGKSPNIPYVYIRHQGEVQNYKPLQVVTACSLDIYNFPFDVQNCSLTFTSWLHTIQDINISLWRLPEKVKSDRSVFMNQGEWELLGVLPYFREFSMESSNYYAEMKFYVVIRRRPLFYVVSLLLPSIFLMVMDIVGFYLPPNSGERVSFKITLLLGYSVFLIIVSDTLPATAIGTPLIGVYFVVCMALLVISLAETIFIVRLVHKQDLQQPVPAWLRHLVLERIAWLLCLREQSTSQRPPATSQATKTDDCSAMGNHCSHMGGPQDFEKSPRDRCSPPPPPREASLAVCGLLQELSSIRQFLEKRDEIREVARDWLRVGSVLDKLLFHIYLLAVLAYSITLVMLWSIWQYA

[7] = biological target: T6, 5-HT2A receptor (Homo sapiens, UniProt P28223); conditions: 100 nM serotonin, 100 nM oleamide; Huidobro-Toro et al. 1996; cited from earlier work
T6 construct: host or cells: frog oocytes, transfected

[8] = biological target: T7, 5-HT2C receptor (Homo sapiens, UniProt P28335); conditions: cited from earlier work
T7 construct: host or cells: frog oocytes, transfected
T7 sequence (P28335 33-458): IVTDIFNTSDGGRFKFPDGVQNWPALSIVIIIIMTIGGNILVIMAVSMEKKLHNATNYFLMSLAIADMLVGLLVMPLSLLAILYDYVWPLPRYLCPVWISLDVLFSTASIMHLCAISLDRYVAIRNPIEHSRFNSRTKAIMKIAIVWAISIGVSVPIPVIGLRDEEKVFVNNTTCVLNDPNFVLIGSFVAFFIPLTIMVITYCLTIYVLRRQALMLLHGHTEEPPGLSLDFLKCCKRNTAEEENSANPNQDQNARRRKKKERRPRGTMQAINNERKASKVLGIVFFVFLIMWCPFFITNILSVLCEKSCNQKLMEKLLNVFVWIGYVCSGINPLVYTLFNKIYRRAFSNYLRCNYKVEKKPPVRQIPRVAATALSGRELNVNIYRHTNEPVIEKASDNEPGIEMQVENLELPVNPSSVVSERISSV

[9] = biological target: T2, human 5-HT1A receptor; assay: R-SAT assay, RAT-1 cells expressing the human 5-HT1A receptor, β-galactosidase readout; format: cell-based; conditions: for potentiation: 100 nM 5-HT
[10] = system: FAAH; conditions: cited from earlier work

T1 sequence (P14842 whole entry): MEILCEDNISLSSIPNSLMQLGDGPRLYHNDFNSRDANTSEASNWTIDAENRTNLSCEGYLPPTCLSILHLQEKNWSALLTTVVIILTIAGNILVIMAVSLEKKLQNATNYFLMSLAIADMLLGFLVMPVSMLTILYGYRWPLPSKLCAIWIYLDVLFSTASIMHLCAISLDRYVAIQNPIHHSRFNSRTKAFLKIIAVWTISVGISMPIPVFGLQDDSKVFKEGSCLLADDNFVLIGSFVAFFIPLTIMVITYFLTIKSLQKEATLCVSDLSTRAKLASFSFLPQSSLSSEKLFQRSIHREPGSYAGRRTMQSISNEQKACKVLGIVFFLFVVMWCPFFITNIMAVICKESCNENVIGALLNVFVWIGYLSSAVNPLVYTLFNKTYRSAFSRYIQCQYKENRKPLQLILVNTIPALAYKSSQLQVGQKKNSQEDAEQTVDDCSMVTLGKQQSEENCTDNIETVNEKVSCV
T3 sequence (P34969 whole entry): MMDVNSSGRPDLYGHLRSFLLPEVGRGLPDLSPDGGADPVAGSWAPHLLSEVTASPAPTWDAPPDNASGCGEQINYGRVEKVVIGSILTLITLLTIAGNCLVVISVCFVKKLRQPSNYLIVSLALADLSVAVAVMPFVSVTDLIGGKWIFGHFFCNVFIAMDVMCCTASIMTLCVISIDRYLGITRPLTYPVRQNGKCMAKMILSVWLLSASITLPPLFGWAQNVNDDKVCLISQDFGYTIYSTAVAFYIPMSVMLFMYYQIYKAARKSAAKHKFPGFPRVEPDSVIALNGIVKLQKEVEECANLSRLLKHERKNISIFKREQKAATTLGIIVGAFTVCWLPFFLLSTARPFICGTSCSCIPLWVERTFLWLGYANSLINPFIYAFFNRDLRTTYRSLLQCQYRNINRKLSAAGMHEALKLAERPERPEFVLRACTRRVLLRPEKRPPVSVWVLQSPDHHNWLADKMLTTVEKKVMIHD
T6 sequence (P28223 whole entry): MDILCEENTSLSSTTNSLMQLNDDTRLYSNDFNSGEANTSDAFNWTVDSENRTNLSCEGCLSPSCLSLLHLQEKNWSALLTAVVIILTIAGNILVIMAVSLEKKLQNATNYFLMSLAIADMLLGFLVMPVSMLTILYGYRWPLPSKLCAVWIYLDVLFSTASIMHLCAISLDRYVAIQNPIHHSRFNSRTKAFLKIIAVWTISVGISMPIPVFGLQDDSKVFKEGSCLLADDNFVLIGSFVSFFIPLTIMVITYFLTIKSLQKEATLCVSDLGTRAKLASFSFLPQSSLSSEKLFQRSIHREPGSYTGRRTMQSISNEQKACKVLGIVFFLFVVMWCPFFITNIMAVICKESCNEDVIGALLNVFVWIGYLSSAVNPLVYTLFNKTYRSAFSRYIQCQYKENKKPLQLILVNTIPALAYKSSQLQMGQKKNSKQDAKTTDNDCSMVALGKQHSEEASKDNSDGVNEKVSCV
T4 sequence (P14842 whole entry): as the sequence (P14842 whole entry) above

Structure (SMILES) | potentiation of the 5-HT2A receptor response (in words) [1] | potentiation of the 5-HT1A receptor response (in words) [2] | also measured
CCCCCCCC/C=C\CCCCCCCCOCC(CO)OC(C)=O (stereo not drawn) [1-oleyl-2-acetylglycerol] | weakly inhibited | – | –
CCCCCCCC/C=C\CCCCCCC(C)(C)C(N)=O [2,2-dimethyloleamide] | potent inhibitors | – | –
CCCC/C=C\CCCCCCCC(N)=O [14:1^9, Myristoleamide] | – | more effective on the 5-HT1A receptor than 5-HT2A | –
CCCCCC/C=C\CCCCCCCC(N)=O [16:1^9, Palmitoleamide] | – | approaching the potency of oleamide | –
CCCCCCCCCCCCCCCCCC(N)=O [18:0, stearamide] | no observable potentiation; also recorded: ineffective at potentiating | less effective than oleamide, albeit not inactive | –
CCCCCCCC/C=C/CCCCCCCC(N)=O [18:1^9-trans, Elaidamide] | no observable potentiation; also recorded: ineffective at potentiating | less effective than oleamide, albeit not inactive | –
CCCCC/C=C\C/C=C\CCCCCCCC(N)=O [18:2^9,12, Linoleamide] | – | approaching the potency of oleamide | –
CC/C=C\C/C=C\C/C=C\CCCCCCCC(N)=O [18:3^6,9,12, linolenamide] | more effective but still less potent | – | –
CCCCCCCCCCCCCC/C=C\CCCC(N)=O [20:1^5] | – | – | potentiation of the 5-HT2A receptor response (in words) ([1]; listed as 20:1^9): inactivity; potentiation of the 5-HT2A receptor response (in words) ([1]; listed as 20:1^13): modest activity
CCCCCCCC/C=C\CCCCCCCCCCCCCC(N)=O [24:1^9, Nervonamide] | modest activity | – | –
CCCCC/C=C\C/C=C\C/C=C\C/C=C\CCCC(N)=O [Arachidonamide] | ineffective | – | potentiation of the 5-HT2A receptor response (in words) ([1]; listed as arachidonamide): less active or ineffective
CCCCCCCCC#CCCCCCCCC(N)=O [Compound 2, 9-octadecynamide] | nearly equipotent with oleamide | – | –
CCCCCCCC/C=C\CCCCCCCC(=O)NCC(=O)O [N-oleyl glycine, N-Oleoyl glycine] | – | weak potentiator | –
CCCCCCCCC=CCCCCCCCC(=O)N(C)C [NMe2 tertiary amide] | maximum effect | – | –
CCCCC/C=C\C/C=C\C/C=C\C/C=C\CCCC(=O)NCCO [anandamide, reference compound] | weakly inhibitory; also recorded: less active or ineffective | found to potentiate | –
CCCCCCCC/C=C\CCCCCCCC(=O)NC1CC1 [cyclopropyl amide] | uniquely effective at inhibiting; also recorded: inactive or inhibitory | effective at potentiating | –
CCCCCCCCC=CCCCCCCCC(=O)NC(C)C [isopropyl amide] | inactive or inhibitory | effective at potentiating | –
CCCCCCCC/C=C\CCCCCCCC(N)=O [oleamide, cis-9-ocatadecenamide] | most effective | – | potentiation response ([3]; 100 nM 5-HT): 165%; potentiation response ([3]; 1 μM 5-HT): 170%; potentiation at higher concentration ([3]; 1 μM oleamide): no additional potentiation; concentration giving maximal response ([3]; assayed at 100 nM or 1 μM 5-HT): 100 nM; effect of treatment alone ([3]; without 5-HT): no effect; action at the 5-HT7 receptor ([4]; alone): weak agonist; action at the 5-HT7 receptor ([4]; in the presence of serotonin): unsurmountable antagonist; potentiation of 5-HT2A [5]: 228%; effect on 5-HT3 receptor [6]: no effect; potentiation of 5-HT2A [7]: 260%; potentiation of 5-HT2C ([8]; 100 nM serotonin, 100 nM oleamide): 365%; concentration of maximal potentiation [8]: 100 nM; lowest concentration at which potentiation was observed [8]: 1 nM; potentiation ([9]; 100 nM oleamide): 370%; potentiation ([9]; 1 μM oleamide): 560%; lowest concentrations producing a measurable effect ([9]; with 5-HT): 1 to 10 nM; effect of treatment alone ([9]; without 5-HT): no effect
CCCCCCCC/C=C\CCCCCCCC(=O)O [oleic acid, Oleic acid, reference compound] | did not provide a comparable potentiation | better tolerated | –
CCCCCCCC/C=C\CCCCCCCC=O [oleyl aldehyde] | – | – | inhibition of FAAH (in words) [10]: potent inhibitors
CCCCCCCC/C=C\CCCCCCCC(=O)NCCO [oleyl ethanolamide] | less active or ineffective | found to potentiate | –
CCCCCCCC/C=C\CCCCCCCC(=O)NCCCO [oleyl propanolamide] | – | equally effective | –
